Reference: US20250161403A1, “PEPTIDES AND METHODS OF USE THEREOF IN TREATING OCULAR DISORDERS” (Biomarck Pharmaceuticals, Ltd., priority 2022, published 2025)

Columns and labels:
Type in all cases: in vivo, Sprague-Dawley rats
[1] = tested on: dry eye in the Alacrimal Rat Model; experiment: Alacrimal rat dry eye model: clinical examination by biomicroscopy, corneal opacity score; conditions: for Corneal scores compared to sham: 100 μM topical 4 times a day, days 3 and 7
Method: (§1) Dry eye was induced in the left eye of Sprague-Dawley rats by removal of the extraorbital lacrimal gland. […] Topical administration of test compounds was initiated 2 weeks after surgery, given 4 times a day and continued for 24 days. Sham rats (n=6) were untreated. Alacrimal rats (n=6 each) were dosed bilaterally with 10 μL of phosphate buffered saline (PBS), or 100 μM of either of two MARCKS inhibitors: BIO-11006 [high molecular weight] or BIO-91201 [lower molecular weight]. The efficacy of these MARCKS inhibitor peptides was assessed via clinical examination using biomicroscopy and phenol red test (PRT) tear volume with the observers masked to the treatments. Examinations were at baseline, 2 weeks after surgery, and on days 1, 3, 7, 14, 21, and 24 after initiating dosing. Clinical scores for corneal opacity, vascularization, and corneal fluorescein (FL) retention were recorded at each examination.
Corneal scores were assessed as in the table below.

[2] = tested on: dry eye in the Alacrimal Rat Model; experiment: Alacrimal rat dry eye model: phenol red test (PRT) tear volume; conditions: overall conclusion of the study; 100 μM topical
Method: as §1
FIG. 3 provides the results of the phenol red test (PRT), showing tear measurement in mm/20 s averaged for each group.

[3] = tested on: dry eye in the Alacrimal Rat Model; experiment: Alacrimal rat dry eye model: corneal fluorescein (FL) retention score; conditions: 100 μM topical 4 times a day
Method: as §1
PRT was higher in MARCKs inhibitor-dosed groups compared to PBS groups on days 14, 21, and 24 after surgery (p<0.02; t test). Fluorescein retention score was measured as shown in the table below, and the scores and statistical analyses are provided in FIG. 2.
Fluorescein retention scores.

Substance	Corneal scores compared to sham [1]	tear production [2]	corneal opacity scores ([1]; 100 μM, 10 μL topical 4 times a day for 24 days, relative to PBS and BIO-11006 dosed groups)	effect on indicators of dry eye disease including corneal scores and corneal fluorescein retention ([1]; overall conclusion of the study, 100 μM topical)	FL retention scores versus sham eyes ([3]; through day 14)	corneal fluorescein (FL) retention ([3]; versus PBS or BIO-11006 dosed eyes, p<0.02)
BIO-11006: N-terminal acetylated peptide of SEQ ID NO 106 (GAQFSKTAAK), free C-terminus; MARCKS inhibitor, high molecular weight (Ac-GAQFSKTAAK-OH)	significantly elevated					
Ac-AKGE-OH [BIO-91201]	no difference between sham and BIO-91201	improvement in tear production	reduced corneal opacity scores relative to the PBS and BIO-11006 dosed groups	significant positive effect	not significantly different than sham eyes	significantly lower FL retention than PBS or BIO-11006 dosed eyes
